In one assay the target is T1, c-kit (Homo sapiens, UniProt P10721).
T1 construct: MO7e (human megakaryocytic leukemia cell line) which had been arrested for 20 hr; endogenous in cells; host or cells: MO7e human megakaryocytic leukemia cell line
In words: Inhibitory activity against c-kit autophosphorylation (MO7e cells, h-SCF). The format is cell-based. The following applies: for IC50: MO7e cells, h-SCF 50 ng/ml, read-out: c-kit IC50; for inhibition at 1 µM: Mo7e, figure in parentheses in −( ), at 1000 nM. The method, boiled down: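 Phospho-c-kit ELISA: plate-bound PY-20 anti-phosphotyrosine captures lysate, anti-c-kit plus peroxidase-labelled secondary antibody detect, read at 450 nm. Lysates come from 20 hr-arrested MO7e cells given compound for 1 hr before a 5 min 50 ng/ml h-SCF stimulus.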

The next assay has as its target T2, PDGF-Ra (Homo sapiens, UniProt P16234).
T2 construct: host or cells: G-292 human osteosarcoma cells
In words: Inhibitory activity against PDGF-Ra phosphorylation by PDGF-AA stimulation using G292. The format is cell-based. The conditions noted are these: Pharmacological Test Example 1; > means inhibition at indicated concentration not more than 50%, < and << not less than 50%; read-out: PDGF (E) IC50. In outline: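 G-292 human osteosarcoma cells, serum-starved overnight in 0.1% FBS, were pretreated with compound in DMSO for 1 hr at 37 °C, then stimulated with 50 ng/ml PDGF-AA for 5 min. Lysates were captured on anti-phosphotyrosine PY-20 plates and probed with anti-PDGF-Ra plus HRP secondary; absorbance read at 450 nm.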

We go through 25 molecules from US7135466B2 (Kirin Beer Kabushiki Kaisha, priority 1999, dated 2006).

T2 sequence (P16234 24-1089): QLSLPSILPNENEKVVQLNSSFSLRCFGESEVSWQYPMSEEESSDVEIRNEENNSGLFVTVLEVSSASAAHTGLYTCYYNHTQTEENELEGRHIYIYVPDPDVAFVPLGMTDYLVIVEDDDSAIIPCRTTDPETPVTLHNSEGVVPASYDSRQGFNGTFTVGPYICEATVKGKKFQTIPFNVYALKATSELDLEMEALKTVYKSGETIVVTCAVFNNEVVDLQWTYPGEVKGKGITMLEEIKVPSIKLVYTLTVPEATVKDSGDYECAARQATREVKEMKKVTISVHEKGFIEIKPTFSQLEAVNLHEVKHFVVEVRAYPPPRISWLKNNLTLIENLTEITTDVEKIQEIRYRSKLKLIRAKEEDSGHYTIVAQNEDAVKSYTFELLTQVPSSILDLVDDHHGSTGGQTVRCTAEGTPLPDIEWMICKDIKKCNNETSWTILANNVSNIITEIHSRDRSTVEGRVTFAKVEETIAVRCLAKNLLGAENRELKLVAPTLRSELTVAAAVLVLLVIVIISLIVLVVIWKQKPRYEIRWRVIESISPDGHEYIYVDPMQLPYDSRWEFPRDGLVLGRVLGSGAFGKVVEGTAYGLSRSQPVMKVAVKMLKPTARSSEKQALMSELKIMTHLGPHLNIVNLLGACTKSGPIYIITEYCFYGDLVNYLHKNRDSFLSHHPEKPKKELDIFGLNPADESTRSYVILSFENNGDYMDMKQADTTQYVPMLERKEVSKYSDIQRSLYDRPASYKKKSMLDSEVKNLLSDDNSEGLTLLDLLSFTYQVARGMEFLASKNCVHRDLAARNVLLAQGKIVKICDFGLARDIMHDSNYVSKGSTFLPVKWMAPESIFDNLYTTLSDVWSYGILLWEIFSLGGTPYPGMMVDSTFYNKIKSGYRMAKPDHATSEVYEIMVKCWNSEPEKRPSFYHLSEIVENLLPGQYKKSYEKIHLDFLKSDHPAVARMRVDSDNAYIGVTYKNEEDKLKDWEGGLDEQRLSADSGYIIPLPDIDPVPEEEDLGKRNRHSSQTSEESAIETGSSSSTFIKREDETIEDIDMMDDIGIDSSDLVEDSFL
T1 sequence (P10721 26-976): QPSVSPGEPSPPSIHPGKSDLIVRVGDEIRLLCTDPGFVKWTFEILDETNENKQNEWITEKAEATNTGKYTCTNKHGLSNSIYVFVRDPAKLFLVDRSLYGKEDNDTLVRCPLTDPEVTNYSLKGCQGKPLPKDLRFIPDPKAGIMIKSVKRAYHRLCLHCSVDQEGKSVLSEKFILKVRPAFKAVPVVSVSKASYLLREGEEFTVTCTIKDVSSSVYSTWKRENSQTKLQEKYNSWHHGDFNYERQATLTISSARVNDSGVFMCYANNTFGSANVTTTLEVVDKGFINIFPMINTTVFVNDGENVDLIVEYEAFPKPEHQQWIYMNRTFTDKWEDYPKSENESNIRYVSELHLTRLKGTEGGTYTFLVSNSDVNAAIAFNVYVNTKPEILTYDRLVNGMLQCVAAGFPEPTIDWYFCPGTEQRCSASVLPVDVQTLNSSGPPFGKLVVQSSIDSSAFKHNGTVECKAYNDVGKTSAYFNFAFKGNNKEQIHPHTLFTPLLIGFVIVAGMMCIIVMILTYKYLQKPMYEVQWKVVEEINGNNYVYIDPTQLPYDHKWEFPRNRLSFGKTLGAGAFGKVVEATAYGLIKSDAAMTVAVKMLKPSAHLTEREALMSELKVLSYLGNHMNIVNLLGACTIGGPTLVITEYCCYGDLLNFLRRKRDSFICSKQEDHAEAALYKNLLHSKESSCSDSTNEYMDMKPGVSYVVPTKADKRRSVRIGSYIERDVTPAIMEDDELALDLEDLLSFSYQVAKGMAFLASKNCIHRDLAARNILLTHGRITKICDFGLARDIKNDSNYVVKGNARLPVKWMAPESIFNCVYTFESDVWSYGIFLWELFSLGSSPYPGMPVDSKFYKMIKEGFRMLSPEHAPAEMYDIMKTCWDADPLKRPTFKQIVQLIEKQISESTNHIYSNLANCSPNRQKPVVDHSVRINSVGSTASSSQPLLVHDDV

One may read the IC50 as the concentration needed to halve the response being measured. In the case of `CCCC(CC)OC(=O)Nc1ccc(Oc2ncnc3cc(OC)c(OC)cc23)cc1` (centres unmarked) [Example 337, 1-Ethylbutyl N-{4-[(6,7-dimethoxy-4-quinazolinyl)oxy]phenyl}carbamate], the IC50 at c-kit is 198 nM; at PDGF-Ra it was below 10 nM.

Consider `CCCC(CC)OC(=O)Nc1ccc(Oc2ncnc3cc(OC)c(OC)cc23)cc1Cl` (centres unmarked) [Example 338, 1-Ethylbutyl N-{2-chloro-4-[(6,7-dimethoxy-4-quinazolinyl)oxy]phenyl}carbamate], for which the IC50 was 956 nM on c-kit and 25 nM on PDGF-Ra.

On to `COc1cc2ncnc(Oc3ccc(NC(=O)OCCc4ccccc4)c(Cl)c3)c2cc1OC` [Example 339, Phenethyl N-{2-chloro-4-[(6,7-dimethoxy-4-quinazolinyl)oxy]phenyl}carbamate], for which the IC50 on c-kit was 197 nM; on PDGF-Ra, 38 nM.

For the molecule `COc1cc2ncnc(Oc3ccc(NC(=O)OCC4CCCCC4)cc3)c2cc1OC` [Example 340, Cyclohexylmethyl N-{4-[(6,7-dimethoxy-4-quinazolinyl)oxy]phenyl}carbamate], the IC50 was 107 nM at c-kit and below 10 nM on PDGF-Ra.

`COc1cc2ncnc(Oc3ccc(NC(=O)OCC4CCCCC4)c(Cl)c3)c2cc1OC` [Example 341, Cyclohexylmethyl N-{2-chloro-4-[(6,7-dimethoxy-4-quinazolinyl)oxy]phenyl}carbamate]: the figures for the IC50 on c-kit and at PDGF-Ra were 519 nM and 32 nM, respectively.

Regarding `COc1cc2ncnc(Oc3ccc(NC(=O)OC4CCCCCC4)cc3)c2cc1OC` [Example 342, Cycloheptyl N-{4-[(6,7-dimethoxy-4-quinazolinyl)oxy]phenyl}carbamate], the IC50 on c-kit is below 30 nM; at PDGF-Ra, below 10 nM.

Regarding `COc1cc2ncnc(Oc3ccc(NC(=O)OC4CCCCCC4)c(Cl)c3)c2cc1OC` [Example 343, Cycloheptyl N-{2-chloro-4-[(6,7-dimethoxy-4-quinazolinyl)oxy]phenyl}carbamate], the IC50 is 232 nM at c-kit and below 10 nM at PDGF-Ra.

With `CCCCOC(=O)Nc1ccc(Oc2ncnc3cc(OC)c(OC)cc23)cc1` [Example 344, Butyl N-{4-[(6,7-dimethoxy-4-quinazolinyl)oxy]phenyl}carbamate], the IC50 on c-kit is below 30 nM; at PDGF-Ra it was below 10 nM.

One may read the inhibition as the drop in the measured response relative to a control, in per cent. As to `CCC(OC(=O)Nc1ccc(Oc2ncnc3cc(OC)c(OC)cc23)cc1Cl)c1ccccc1` (centres unmarked) [Example 346, 1-Phenylpropyl N-{2-chloro-4-[(6,7-dimethoxy-4-quinazolinyl)oxy]phenyl}carbamate], the inhibition at 1 µM at c-kit is 37%. Moreover, the IC50 on PDGF-Ra was 41 nM.

`COc1cc2nccc(Oc3cc(C)c(NC(=O)OC(C)C)cc3C)c2cc1OC` [Example 347, Isopropyl N-{4-[(6,7-dimethoxy-4-quinolyl)oxy]-2,5-dimethylphenyl}carbamate]: the figures for the IC50 at c-kit and on PDGF-Ra were 228 nM and 77 nM, respectively.

Regarding `COc1cc2nccc(Oc3ccc(NC(=O)OCC4CCCCCC4)cc3)c2cc1OC` [Example 348, Cycloheptylmethyl N-{4-[(6,7-dimethoxy-4-quinolyl)oxy]phenyl}carbamate], the results for the IC50 on c-kit and on PDGF-Ra were 90 nM and below 10 nM, respectively.

Consider `COc1cc2nccc(Oc3cc(C)c(NC(=O)OCC4CCCCCC4)cc3C)c2cc1OC` [Example 349, Cycloheptylmethyl N-{4-[(6,7-dimethoxy-4-quinolyl)oxy]-2,5-dimethylphenyl}carbamate], for which the IC50 on c-kit was determined as 309 nM; on PDGF-Ra, 12 nM.

Regarding `COc1cc2nccc(Oc3ccc(NC(=O)OCC4CCCCCC4)c(C)c3C)c2cc1OC` [Example 350, Cycloheptylmethyl N-{4-[(6,7-dimethoxy-4-quinolyl)oxy]-2,3-dimethylphenyl}carbamate], the IC50 was 238 nM at c-kit and below 10 nM at PDGF-Ra.

In the case of `COc1cc2ncnc(Oc3ccc(NC(=O)OCC4CCCCCC4)cc3)c2cc1OC` [Example 351, Cycloheptylmethyl N-{4-[(6,7-dimethoxy-4-quinazolinyl)oxy]phenyl}carbamate], the figures for the IC50 on c-kit and on PDGF-Ra were 64 nM and below 10 nM, respectively.

`COc1cc2ncnc(Oc3ccc(NC(=O)OCC4CCCCCC4)c(Cl)c3)c2cc1OC` [Example 352, Cycloheptylmethyl N-{2-chloro-4-[(6,7-dimethoxy-4-quinazolinyl)oxy]phenyl}carbamate]: the IC50 is 195 nM on c-kit and below 10 nM at PDGF-Ra.

As to `COc1cc2nccc(Oc3cc(C)c(NC(=O)OCCC4CCCCC4)cc3C)c2cc1OC` [Example 354, 2-Cyclohexylethyl N-{4-[(6,7-dimethoxy-4-quinolyl)oxy]-2,5-dimethylphenyl}carbamate], the IC50 at c-kit stood at 384 nM; on PDGF-Ra, 15 nM.

With `COc1cc2nccc(Oc3ccc(NC(=O)OCCC4CCCCC4)c(C)c3C)c2cc1OC` [Example 355, 2-Cyclohexylethyl N-{4-[(6,7-dimethoxy-4-quinolyl)oxy]-2,3-dimethylphenyl}carbamate], the IC50 at c-kit came out at 252 nM; on PDGF-Ra, 24 nM.

Turning to `COc1cc2ncnc(Oc3ccc(NC(=O)OCCC4CCCCC4)cc3)c2cc1OC` [Example 356, 2-Cyclohexylethyl N-{4-[(6,7-dimethoxy-4-quinazolinyl)oxy]phenyl}carbamate], the IC50 at c-kit is 66 nM; on PDGF-Ra, below 10 nM.

As for `COc1cc2ncnc(Oc3ccc(NC(=O)OCCC4CCCCC4)c(Cl)c3)c2cc1OC` [Example 357, 2-Cyclohexylethyl N-{2-chloro-4-[(6,7-dimethoxy-4-quinazolinyl)oxy]phenyl}carbamate], the IC50 at c-kit is 116 nM; at PDGF-Ra, below 10 nM.

As for `CCC(CC)OC(=O)Nc1ccc(Oc2ccnc3cc(OC)c(OC)cc23)cc1` [Example 358, 1-Ethylpropyl N-{4-[(6,7-dimethoxy-4-quinolyl)oxy]phenyl}carbamate], the IC50 was 366 nM at c-kit and below 10 nM on PDGF-Ra.

As for `CCC(CC)OC(=O)Nc1cc(C)c(Oc2ccnc3cc(OC)c(OC)cc23)cc1C` [Example 359, 1-Ethylpropyl N-{4-[(6,7-dimethoxy-4-quinolyl)oxy]-2,5-dimethylphenyl}carbamate], the IC50 was determined as 274 nM on c-kit and 28 nM at PDGF-Ra.

On to `CCC(CC)OC(=O)Nc1ccc(Oc2ccnc3cc(OC)c(OC)cc23)c(C)c1C` [Example 360, 1-Ethylpropyl N-{4-[(6,7-dimethoxy-4-quinolyl)oxy]-2,3-dimethylphenyl}carbamate], for which the IC50 at c-kit is 189 nM; on PDGF-Ra, 16 nM.

Turning to `CCC(CC)OC(=O)Nc1ccc(Oc2ncnc3cc(OC)c(OC)cc23)cc1` [Example 361, 1-Ethylpropyl N-{4-[(6,7-dimethoxy-4-quinazolinyl)oxy]phenyl}carbamate], the IC50 at c-kit is 278 nM; on PDGF-Ra, below 10 nM.

Regarding `CCC(CC)OC(=O)Nc1ccc(Oc2ncnc3cc(OC)c(OC)cc23)cc1Cl` [Example 362, 1-Ethylpropyl N-{2-chloro-4-[(6,7-dimethoxy-4-quinazolinyl)oxy]phenyl}carbamate], on c-kit, the inhibition at 1 µM came out at 26%. Moreover, the IC50 on PDGF-Ra was found to be 42 nM.

With `COc1cc2nccc(Oc3ccc(NC(=O)OC4CCCC4)cc3)c2cc1OC` [Example 363, Cyclopentyl N-{4-[(6,7-dimethoxy-4-quinolyl)oxy]phenyl}carbamate], the results for the 50% inhibitory concentration (IC50) on c-kit and on PDGF-Ra were 72 nM and below 10 nM, respectively.
